The results in this text go back to ChEMBL document CHEMBL5131538 (J Med Chem, 2022).

Active and inactive are the calls of the source. The rule behind the calls is not given here.

A short description of series [1]: AUC (0 to infinity) in Sprague-Dawley rat at 3 mg/kg, po. Format: ADME, organism-based. Also noted: time infinity, dose 3 mg/kg, route po. The conditions noted are these: in vivo.
The test system of series [2] is Rattus norvegicus. In words: Organ protective activity in aldosterone-induced uninephrectomized Sprague-Dawley rat model assessed as urinary cast in kidney by measuring pathological lesion score at 1 mg/kg/day by PAS and H and E staining based histological analysis (reference value: 1.4 +/- 0.4). The format is functional.
Series [3] relates to Rattus norvegicus. As to the kind of experiment: Organ protective activity in aldosterone-induced uninephrectomized Sprague-Dawley rat model assessed as urinary cast in kidney by measuring pathological lesion score at 3 mg/kg/day by PAS and H and E staining based histological analysis (reference value: 1.4 +/- 0.4). Format: functional.
In series [4] the test system is Rattus norvegicus. In words: Organ protective activity in aldosterone-induced uninephrectomized Sprague-Dawley rat model assessed as interstitial cellular infiltration in kidney by measuring pathological lesion score at 1 mg/kg/day by PAS and H and E staining based histological analysis (reference value: 1.4 +/- 0.4). The format is functional.
Series [5] can be described thus: Half life in Sprague-Dawley rat at 1 mg/kg, iv. The conditions noted are these: in vivo. Format: ADME, organism-based.
Series [6] concerns Rattus norvegicus. As to the kind of experiment: Organ protective activity in aldosterone-induced uninephrectomized Sprague-Dawley rat model assessed as myocardial necrosis and interstitial cellular infiltration in heart by measuring pathological lesion score at 3 mg/kg/day by sirius red and H and E staining based histological analysis (reference value: 1.7 +/- 0.3). Format: functional.

For series [7], the system named is Rattus norvegicus. In words: Organ protective activity in aldosterone-induced uninephrectomized Sprague-Dawley rat model assessed as glomerular mesangial proliferation in kidney by measuring pathological lesion score at 3 mg/kg/day by PAS and H and E staining based histological analysis (reference value: 1.9 +/- 0.5). The format is functional.
In series [8] the test system is Rattus norvegicus. In words: Organ protective activity in aldosterone-induced uninephrectomized Sprague-Dawley rat model assessed as renal tubular regeneration in kidney by measuring pathological lesion score at 3 mg/kg/day by PAS and H and E staining based histological analysis (reference value: 1.7 +/- 0.5). Format: functional.
Series [9] can be described thus: Cmax in Sprague-Dawley rat at 3 mg/kg, po. Format: ADME, organism-based. Also noted: dose 3 mg/kg, route po. The conditions noted are these: in vivo.
In series [10] the test system is Rattus norvegicus. As to the kind of experiment: Organ protective activity in aldosterone-induced uninephrectomized Sprague-Dawley rat model assessed as renal tubular regeneration in kidney by measuring pathological lesion score at 1 mg/kg/day by PAS and H and E staining based histological analysis (reference value: 1.7 +/- 0.5). Format: functional.
The test system of the next series is CHO-K1. As to the kind of experiment: Antagonist activity at human mineralocorticoid receptor S810L mutant expressed in CHO-K1 cells assessed as inhibition of aldosterone-induced transcriptional activity incubated for 24 hrs in presence of 0.5 nM aldosterone by Steady-Glo reagent based reporter gene assay relative to control. The conditions noted are these: filed as antagonist. Also noted: scale not given: the % may be the effect or the level left. The format is cell-based. For orientation: In a reporter assay the amount or activity of a reporter protein is the signal.

The subject of series [11] is Rattus norvegicus. In words: Organ protective activity in aldosterone-induced uninephrectomized Sprague-Dawley rat model assessed as myocardial necrosis and interstitial cellular infiltration in heart by measuring pathological lesion score at 1 mg/kg/day by sirius red and H and E staining based histological analysis (reference value: 1.7 +/- 0.3). Format: functional.

In series [12] the test system is Rattus norvegicus. In words: Organ protective activity in aldosterone-induced uninephrectomized Sprague-Dawley rat model assessed as degeneration of arteries and perivascular fibrosis in heart by measuring pathological lesion score at 10 mg/kg/day by sirius red and H and E staining based histological analysis (reference value: 1.6 +/- 0.4). The format is functional.

The test system of series [13] is Rattus norvegicus. As to the kind of experiment: Organ protective activity in aldosterone-induced uninephrectomized Sprague-Dawley rat model assessed as glomerular mesangial proliferation in kidney by measuring pathological lesion score at 1 mg/kg/day by PAS and H and E staining based histological analysis (reference value: 1.9 +/- 0.5). Format: functional.
The test system of series [14] is Rattus norvegicus. As to the kind of experiment: Antihypertensive activity against aldosterone induced uninephrectomized Sprague-Dawley rat assessed as reduction in urinary albumin excretion at 3 to 10 mg/kg, po qd administered for 4 weeks. Format: functional, organism-based. The conditions noted are these: dose 3-10 mg/kg.
For series [15], the target named is T1, Mineralocorticoid receptor (Rattus norvegicus, UniProt P22199).
T1 sequence (P22199 whole entry): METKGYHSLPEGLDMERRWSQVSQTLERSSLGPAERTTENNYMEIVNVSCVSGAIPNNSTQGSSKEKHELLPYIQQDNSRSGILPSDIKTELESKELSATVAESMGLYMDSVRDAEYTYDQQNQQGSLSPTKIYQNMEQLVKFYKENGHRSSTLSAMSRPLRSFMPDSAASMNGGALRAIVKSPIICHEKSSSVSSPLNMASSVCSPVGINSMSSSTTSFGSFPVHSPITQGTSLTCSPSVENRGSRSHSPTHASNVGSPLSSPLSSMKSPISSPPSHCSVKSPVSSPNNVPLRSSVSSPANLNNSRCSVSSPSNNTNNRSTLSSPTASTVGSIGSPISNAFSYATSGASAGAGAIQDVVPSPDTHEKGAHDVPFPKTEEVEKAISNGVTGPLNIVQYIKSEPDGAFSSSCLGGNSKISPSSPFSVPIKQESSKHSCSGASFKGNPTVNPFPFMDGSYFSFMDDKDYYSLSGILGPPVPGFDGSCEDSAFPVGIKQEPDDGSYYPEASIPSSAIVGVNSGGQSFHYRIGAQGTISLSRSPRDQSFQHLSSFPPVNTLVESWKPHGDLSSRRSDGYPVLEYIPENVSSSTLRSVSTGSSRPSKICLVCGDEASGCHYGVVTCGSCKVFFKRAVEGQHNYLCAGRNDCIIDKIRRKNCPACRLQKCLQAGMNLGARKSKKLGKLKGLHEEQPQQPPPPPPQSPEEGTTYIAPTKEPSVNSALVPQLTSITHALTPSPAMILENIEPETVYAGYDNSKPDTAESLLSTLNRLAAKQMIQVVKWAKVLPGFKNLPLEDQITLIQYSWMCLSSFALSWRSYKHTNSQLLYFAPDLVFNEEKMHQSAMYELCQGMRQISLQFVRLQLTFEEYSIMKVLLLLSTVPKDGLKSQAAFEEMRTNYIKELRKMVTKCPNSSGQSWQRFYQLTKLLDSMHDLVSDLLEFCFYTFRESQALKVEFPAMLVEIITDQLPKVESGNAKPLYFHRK
Description: Displacement of [3H]-aldosterone from rat mineralocorticoid receptor incubated overnight by liquid scintillation counting analysis

Series [16] has as its system Rattus norvegicus. As to the kind of experiment: Organ protective activity in aldosterone-induced uninephrectomized Sprague-Dawley rat model assessed as glomerular mesangial proliferation in kidney by measuring pathological lesion score at 10 mg/kg/day by PAS and H and E staining based histological analysis (reference value: 1.9 +/- 0.5). Format: functional.
Series [17] has as its system Rattus norvegicus. In words: Organ protective activity in aldosterone-induced uninephrectomized Sprague-Dawley rat model assessed as urinary cast in kidney by measuring pathological lesion score at 10 mg/kg/day by PAS and H and E staining based histological analysis (reference value: 1.4 +/- 0.4). Format: functional.
A short description of series [18]: Oral bioavailability in Sprague-Dawley rat at 3 mg/kg. Format: ADME, organism-based. The conditions noted are these: in vivo.
Series [19] has as its system Rattus norvegicus. As to the kind of experiment: Organ protective activity in aldosterone-induced uninephrectomized Sprague-Dawley rat model assessed as degeneration of arteries and perivascular fibrosis in heart by measuring pathological lesion score at 3 mg/kg/day by sirius red and H and E staining based histological analysis (reference value: 1.6 +/- 0.4). The format is functional.

The term AUC(0-inf) denotes total exposure, with the tail of the curve extrapolated. In general, half-life refers to how long it takes for the measured level to halve. A word on the Cmax: it is the peak of the concentration-time curve. One may read the Ki as a dissociation constant, usually derived from enzyme kinetics or from competition with a known ligand. As a reminder, the bioavailability is the share of a dose that reaches the circulation, judged against a reference dose that is usually intravenous. The compound `CC1(C)Oc2cc(NS(C)(=O)=O)ccc2N(c2ccc(F)cc2)C1=O` [MT-3995] registered an AUC(0-inf) in series [1] of 25000 ng·h/mL. The Activity is 0.7 in the series with Rattus norvegicus [2]; 0.3 in the series on Rattus norvegicus [3]; 1.1 in the series on Rattus norvegicus [4]; 0.9 in the series on Rattus norvegicus [6]; 0.3 with Rattus norvegicus [7]; 0.3 with Rattus norvegicus [8]. Further, the Activity with Rattus norvegicus [10] was determined as 1.3; with CHO-K1, 98.2%; in the series with Rattus norvegicus [11], 1.4; in the series with Rattus norvegicus [12], 0; in the series on Rattus norvegicus [13] it was 1.3; in the series on Rattus norvegicus [16], 0. Moreover, the values for the Activity in the series on Rattus norvegicus [17] and in the series with Rattus norvegicus [19] were 0 and 0.4, respectively. This compound gave a half-life in [5] of 8.59 h. The Cmax in [9] worked out at 1490 ng/mL. In addition, the result in the series with Rattus norvegicus [14] was Active. For the same compound, the Ki in series [15] was determined as 30.8 nM. The bioavailability in series [18] turned out to be 81.8%.
